Legend:
[1] = test system: Oca2-null (OCA2) melanocytes; experiment: melanin assay in Oca2-null melanocytes; assay type: cell-based, mouse; conditions: for pigmentation (melanin level) in Oca2-null melanocytes: FIG. 1, harvested after 5 days, relative to DMSO vehicle
Experimental: (§1) Oca2-null cells were plated in 60 mm dishes for 24 hours followed by dosing with the indicated compounds. DMSO was used as a vehicle control (to establish the baseline for comparison). Cells were harvested after 5 days. Melanocytes were harvested in extraction buffer (50 mM Tris pH7.5, 2 mM EDTA, 150 mM NaCl) containing 1% Triton X-100 and protease inhibitors (Complete, Roche Indianapolis, Ind.) following two washes with 1× phosphate buffered saline (PBS). The lysate was centrifuged for 30 min at 13,000 rpm in a microfuge. The supernatant was removed and the protein concentration determined using a protein assay kit (BioRad, Richmond, Calif.). Three hundred μl of ethanol:ether (1:1) were added to the pellet, which was then vortexed. After incubation at room temperature for 10 min, the solvent was removed (leaving the melanin behind) and the ethanol:ether wash repeated without vortexing. The melanin was then dissolved in 2 N NaOH, 20% DMSO at 60-70° C. The optical density was determined at 490 nm. The value was normalized to protein concentration in the supernatant and expressed as a ratio of the melanin in the vehicle treated cells.
(§2) Cells were seeded in six-well plates in triplicate. After 24 hours, each cell line was treated with IBMX, forskolin or rapamycin, in addition, Oca2-null melanocytes were treated with bafilomycin. Plates were incubated for 72 hours. Melanocytes were harvested and a melanin assay performed as described above.
Oca2-null cells were plated in 60 mm dishes for 24 hours followed by dosing with the indicated compounds. DMSO was used as a vehicle control. […]
Selected compounds identified in the screen were tested using a traditional melanin assay in order to verify the findings of the screen. […] The supernatant was removed and the protein concentration determined using a protein assay kit (BioRad, Richmond, Calif.). […] The optical density was determined at 490 nm. The value was normalized to protein concentration in the supernatant and expressed as a ratio of the melanin in the untreated cells.

[2] = test system: Oca3-null (OCA3) melanocytes; experiment: melanin assay in Oca3-null melanocytes; assay type: cell-based, murine; conditions: FIG. 2; 72 hours; relative to vehicle
Experimental: as §1
Oca3-null melanocytes were seeded in six-well plates in triplicate. After 24 hours, each cell line was treated with vehicle, chloroquine or rapamycin. Plates were incubated for 72 hours. Melanocytes were harvested and a melanin assay performed as described above.

[3] = test system: wildtype (WT) melanocytes; conditions: Ni-Komatsu et al. 2008 Mol Pharmacol; cited from earlier work
wildtype melanocytes = experiment: toxicity to wildtype melanocytes; assay type: cell-based; conditions: even at nanomolar concentrations
Oca2-null melanocytes = experiment: toxicity to Oca2-null melanocytes; assay type: cell-based, mouse; conditions: compared with wildtype melanocytes
Oca2-null cells = experiment: 96-well melanin absorbance screen with MTS cell proliferation assay; assay type: cell-based, mouse; conditions: library compounds at 5 and/or 1 μM; bafilomycin A1 as positive control
Experimental: The present inventors utilized the chemical genetics approach described herein to identify compounds that can be used to reverse the diminished pigmentation in Oca2-null cells. To this end, they first developed a 96-well assay system for rapid compound screening. Melanocytes were cultured in a 96-well plate in the presence of test compounds. Melanin content was determined by replacing the culture medium with PBS and measuring absorbance at 490 nm.
Following validation of their assay system, the present inventors performed a screen, treating Oca2-null cells with library compounds at concentrations of 5 and/or 1 μM. Each plate included untreated Oca2-null cells as negative controls and cells treated with bafilomycin A1 as positive controls. Compounds identified as potential hits were then re-screened to verify their ability to promote melanin synthesis in cells lacking functional Oca2 protein.

[4] = test system: wildtype (WT) melanocytes; experiment: melanin assay in wildtype melanocytes; assay type: cell-based; conditions: FIG. 3; 72 hours
Experimental: as §2
Wildtype cells were plated in 24-well plates for 24 hours followed by dosing with the indicated compounds. DMSO was used as a vehicle control. Cells were harvested after 3 days and a melanin assay was performed as described above.
Selected compounds identified in the screen were tested using a traditional melanin assay in order to verify the findings of the screen. Following 3 (normal melanocytes) or 5 (mutant melanocytes) days of treatment, melanocytes were harvested in extraction buffer (50 mM Tris pH7.5, 2 mM EDTA, 150 mM NaCl) containing 1% Triton X-100 and protease inhibitors (Complete, Roche Indianapolis, Ind.) following two washes with 1× phosphate buffered saline (PBS). The lysate was centrifuged for 30 min at 13,000 rpm in a microfuge. The supernatant was removed and the protein concentration determined using a protein assay kit (BioRad, Richmond, Calif.). […] The optical density was determined at 490 nm. The value was normalized to protein concentration in the supernatant and expressed as a ratio of the melanin in the untreated cells.

melanoma cells = conditions: reported previously; by upregulating expression of tyrosinase; cited from earlier work

**Q.** Which “pigmentation (melanin level) in Oca2-null melanocytes” value [1] does the source give for CCN(CC)CCCC(C)Nc1ccnc2cc(Cl)ccc12 (racemic) [chloroquine, (RS)—N′-(7-chloroquinolin-4-yl)-N,N-diethyl-pentane-1,4-diamine] here?
**A.** increase pigmentation

**Q.** What about the “pigmentation (melanin level) in Oca3-null melanocytes” value [2] of the same compound?
**A.** increase pigmentation

**Q.** What about the “pigmentation in normal melanocytes” value [3] of the same compound?
**A.** decrease pigmentation

**Q.** For CO/C1=C\C(C)=C\[C@@H](C)[C@@H](O)[C@@H](C)C/C(C)=C/C=C/[C@H](OC)[C@@H]([C@@H](C)[C@@H](O)[C@H](C)[C@@]2(O)C[C@@H](O)[C@H](C)[C@@H](C(C)C)O2)OC1=O [Bafilomycin, bafilomycin A1], which “melanin content of Oca2-null (OCA2) melanocytes” value ([1]; FIG. 3, 72 hours) is on record?
**A.** increased the melanin content

**Q.** What about the “toxicity to wildtype melanocytes” value (wildtype melanocytes) of the same compound?
**A.** highly toxic

**Q.** And the “accompanying toxicity in Oca2-null melanocytes” value (Oca2-null melanocytes)?
**A.** much less accompanying toxicity

**Q.** What about the “pigmentation of Oca2-null cells in 96-well screen” value (Oca2-null cells) of the same compound?
**A.** reverses the pigmentation phenotype

**Q.** With CC(C)Cn1c(=O)n(C)c(=O)c2[nH]cnc21 [IBMX, 3-isobutyl-1-methylxanthine] as the compound, how does the “melanin content of wildtype (WT) melanocytes” value [4] read?
**A.** effective in increasing the melanin content

**Q.** Which results are given for CO[C@H]1C[C@@H]2CC[C@@H](C)[C@@](O)(O2)C(=O)C(=O)N2CCCC[C@H]2C(=O)O[C@H]([C@H](C)C[C@@H]2CC[C@@H](O)[C@H](OC)C2)CC(=O)[C@H](C)/C=C(\C)[C@@H](O)[C@@H](OC)C(=O)[C@H](C)C[C@H](C)/C=C/C=C/C=C/1C [rapamycin, Rapamycin]?
**A.** pigmentation (melanin level) in Oca2-null melanocytes [1]: increase pigmentation; pigmentation (melanin level) in Oca3-null melanocytes [2]: increase pigmentation; pigmentation in melanoma cells (melanoma cells): increase pigmentation

From patent publication US9717722B2, “Methods and agents for treating tyrosinase-positive albinism” (NEW YORK UNIVERSITY, priority 2013, dated 2017)
